According to patent publication US20080009511A1, “Cancer treatment with compounds inhibiting PKC alpha” (priority 2004, published 2008):

Legend:
[1] = test system: A431 human epidermoid carcinoma cells; assay: Cell viability assay (trypan blue dye exclusion), viable cells counted at day 6; format: cell-based; conditions: 5 micromoles
Procedure, shortened: (§1)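 Cells grown in DMEM with 10 percent bovine calf serum were seeded for 24 hours, then cultures of about 4×10^4 cells received PKC inhibitors or were left untreated. Gö7874 was used at 5 micromoles; Gö6850, NGIC-I and the Ro31 compounds at 10 micromoles.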

[2] = test system: AGS human gastric cancer cells; assay: as above; format: cell-based; conditions: 5 micromoles
Procedure, shortened: as §1

[3] = test system: H460 human lung cancer cells; assay: as above; format: cell-based; conditions: 5 micromoles
Procedure, shortened: as §1

[4] = test system: HT29 human colon cancer cells; assay: as above; format: cell-based; conditions: 5 micromoles
Procedure, shortened: as §1

[5] = test system: Hela human cervical cancer cells; assay: as above; format: cell-based; conditions: 5 micromoles
Procedure, shortened: as §1

[6] = test system: HepG2 human liver cancer cells; assay: as above; format: cell-based; conditions: 5 micromoles
Procedure, shortened: as §1

[7] = test system: Jurkat cells (a human acute T-cell leukemia cell line); assay: as above; format: cell-based; conditions: 5 micromoles
Procedure, shortened: as §1

[8] = test system: MDA-MB-468 human breast cancer cells; assay: as above; format: cell-based; conditions: 5 micromoles
Procedure, shortened: as §1

[9] = test system: NBT-II human bladder cancer cells; assay: as above; format: cell-based; conditions: 5 micromoles, about 4×10^4 cells seeded, untreated 2.9 ± 0.4
Procedure, shortened: as §1

[10] = test system: PANC-1 human pancreatic carcinoma cells; assay: as above; format: cell-based; conditions: 5 micromoles
Procedure, shortened: as §1

[11] = test system: PC3 human prostate cancer cells; assay: as above; format: cell-based; conditions: 10 micromoles
U251 human glioma cells = assay: as above; format: cell-based; conditions: 5 micromoles
Procedure, shortened: as §1

KB oral cancer cells = assay: as above; format: cell-based, human; conditions: 5 micromoles
Procedure, shortened: as §1

U-937 lymphoma cells = assay: as above; format: cell-based, human; conditions: 5 micromoles
Description: Cells were seeded for 24 hours. Then they were treated with PKC inhibitors or left untreated. The cells were then collected periodically and evaluated using trypan blue dye exclusion to assess viability using the method described by C Y Chen, et al., in J. Biol. Chem. 273:16700-16709. Cultures containing about 4×10^4 cells were treated with 5 micromoles of Gö7874 (except that PC3 prostate cancer cells were treated with 10 micromoles) and the viable cells were counted at day 6.

[12] = test system: 3Y1 rat fibroblast cells overexpressing EGF receptors (3Y1-EGFR cells); assay: EGF-induced cell transformation (transformed morphology); format: cell-based; conditions: 1 micromole
[13] = test system: 3Y1 rat fibroblast cells overexpressing the epidermal growth factor receptor (EGFR); assay: Soft agar/cell transformation assay; format: cell-based; conditions: 1 micromole with EGF (100 ng/ml), in contrast to EGF alone
Excerpt: 1×10^3 3Y1 rat fibroblast cells overexpressing the epidermal growth factor receptor (EGFR) were suspended in top agar (consisting of 20 percent calf serum, 0.38 percent agar and the remainder DMEM) and overlaid onto bottom agar (DMEM, 20 percent calf serum and 0.7 percent agar) as reported by Sementchenko et al., in Onocgen 17:2883-2888.

[14] = about 4×10^4 cells seeded, untreated 3.8 ± 0.4

Q: How did the “cells that went to apoptosis after treatment” value (shortened to “cells that went to apoptosis”) [1] turn out when COc1ccc2c(c1)c1c3c(c4c5ccccc5n(C)c4c1n2CC(O)CN(C)C)C(=O)NC3=O.Cl (stereo not drawn) [Gö7874, 5,7(6H)-dione,13-[3-(dimethylamino)-2-hydroxypropyl]-12,13-dihydro-3-methoxy-12-methyl-5H-Indolo[2,3-a]pyrrolo[3,4-c]carbazole, monohydrochloride] was run?
A: The value was “all”.

Q: What about the “Treated (cell number × 10^5)” value ([1]; about 4×10^4 cells seeded, untreated 5.4 ± 0.4) of the same molecule?
A: Its value is 0 × 10^5.

Q: What about the “cells that went to apoptosis” value [2] of the same molecule?
A: Its value is “all”.

Q: And the “inhibition of cell proliferation” value [2]?
A: The value was “More than 60%”.

Q: And the “Treated (cell number × 10^5)” value ([2]; about 4×10^4 cells seeded, untreated 2.4 ± 0.3)?
A: Its value is 0.8 × 10^5.

Q: What about the “cells that went to apoptosis” value [3] of the same molecule?
A: Its value is “all”.

Q: And the “Treated (cell number × 10^5)” value ([3]; about 4×10^4 cells seeded, untreated 2.4 ± 0.2)?
A: Its value is 0 × 10^5.

Q: And the “cells that went to apoptosis” value [4]?
A: The value was “all”.

Q: What about the “Treated (cell number × 10^5)” value [4, 14] of the same molecule?
A: Its value is 0 × 10^5.

Q: And the “cells that went to apoptosis” value [5]?
A: The value was “all”.

Q: And the “Treated (cell number × 10^5)” value ([5]; about 4×10^4 cells seeded, untreated 3.4 ± 0.4)?
A: Its value is 0 × 10^5.

Q: What about the “cells that went to apoptosis” value [6] of the same molecule?
A: Its value is “all”.

Q: What about the “Treated (cell number × 10^5)” value ([6]; about 4×10^4 cells seeded, untreated 4.2 ± 0.4) of the same molecule?
A: Its value is 0 × 10^5.

Q: And the “originally seeded cells survived (fraction, words)” value [7]?
A: The value was “less than one third”.

Q: And the “Treated (cell number × 10^5)” value ([7]; about 4×10^4 cells seeded, untreated 8.8 ± 0.4)?
A: Its value is 0.1 × 10^5.

Q: And the “cells that went to apoptosis” value [8]?
A: The value was “all”.

Q: And the “Treated (cell number × 10^5)” value ([8]; about 4×10^4 cells seeded, untreated 6.1 ± 0.4)?
A: Its value is 0 × 10^5.

Q: And the “Treated (cell number × 10^5)” value [9]?
A: Its value is 0 × 10^5.

Q: What about the “cells that went to apoptosis” value [10] of the same molecule?
A: The value was “all”.

Q: What about the “Treated (cell number × 10^5)” value ([10]; about 4×10^4 cells seeded, untreated 2.1 ± 0.3) of the same molecule?
A: The value was 0 × 10^5.

Q: What about the “cells that went to apoptosis” value [11] of the same molecule?
A: Its value is “all”.

Q: What about the “Treated (cell number × 10^5)” value ([11]; about 4×10^4 cells seeded, untreated 7.1 ± 0.3) of the same molecule?
A: Its value is 0 × 10^5.

Q: What about the “cells that went to apoptosis” value (U251 human glioma cells) of the same molecule?
A: Its value is “all”.

Q: And the “Treated (cell number × 10^5)” value (U251 human glioma cells; about 4×10^4 cells seeded, untreated 9.6 ± 0.5)?
A: Its value is 0 × 10^5.

Q: And the “cells that went to apoptosis” value (KB oral cancer cells)?
A: The value was “all”.

Q: What about the “Treated (cell number × 10^5)” value (KB oral cancer cells; [14]) of the same molecule?
A: Its value is 0 × 10^5.

Q: What about the “cells that went to apoptosis” value (U-937 lymphoma cells) of the same molecule?
A: Its value is “all”.

Q: What about the “cell apoptosis during co-treatment” value ([12]; co-treatment with 100 ng/ml EGF) of the same molecule?
A: Its value is “without detected cell apoptosis”.

Q: What about the “effect on EGF-induced transformed morphology” value ([12]; co-treatment with 100 ng/ml EGF for 48 hours) of the same molecule?
A: Its value is “partially blocked”.

Q: What about the “reduction of colony number in soft agar” value [13] of the same molecule?
A: The value was 82%.
